Assay results: paper PMC4865845, “A human genome-wide loss-of-function screen identifies effective chikungunya antiviral drugs” (Nature Communications, 2016)

What follows are substances tested on CHIKV.
Assay type: cell-based, chikungunya virus

Row | Substance | Score_si1 | Score_si2 | Score_si4 | Score_si3
1 | Hs_ACO2_5 (CGGGAAGACATTGCCAATCTA; chemistry not given here) | 2.43 |  |  | 
2 | Hs_ACYP1_1 (AAGGATTACCACTGTACACAA; chemistry not given here) [reference compound] | -2.79 |  |  | 
3 | Hs_ADPRHL1_1 (CCCGACAATTATGATGCAGAA; chemistry not given here) [reference compound] | -2.15 |  |  | 
4 | Hs_ANKRD9_1 (AAGAGAGGTATGGGACCTGAA; chemistry not given here) | 2.5 |  |  | 
5 | Hs_ANKRD9_2 (CTCCCAGGAGCTAACGTATAA; chemistry not given here) |  | 2.08 |  | 
6 | Hs_AOF2_2 (ACATCTTACCTTAGTCATCAA; chemistry not given here) |  |  | 0.88 | 
7 | Hs_AOF2_3 (ACGAGTTGCCACATTTCGCAA; chemistry not given here) |  |  |  | 1.26
8 | Hs_AP2M1_3 (ACGTGTGACTTCGTCCAGTTA; chemistry not given here) | 2.57 |  |  | 
9 | Hs_AP3S2_1 (TGGGATGGTGTTGGAAACAAA; chemistry not given here) |  | 1.11 |  | 
10 | Hs_AP3S2_2 (CAGGGCTTAGGCGCCCATAAA; chemistry not given here) | 1.97 |  |  | 
11 | Hs_APEX2_3 (AGGGCCCTTCATCGATAGCTA; chemistry not given here) [reference compound] | -3.29 |  |  | 
12 | Hs_APEX2_5 (ACGCTGCAGCACAACAATCAA; chemistry not given here) [reference compound] |  |  | -0.1 | 
13 | Hs_APPL_2 (CAGGAATTTCTACAATAATAA; chemistry not given here) [reference compound] | -2.3 |  |  | 
14 | Hs_APPL_3 (TAGGAATAGGATAATGATATA; chemistry not given here) [reference compound] |  | -1.06 |  | 
15 | Hs_AQP3_2 (CTGGATGTACATACATAAGTA; chemistry not given here) |  |  |  | 1.09
16 | Hs_AQP3_3 (CTGGATCAAGCTGCCCATCTA; chemistry not given here) | 1.31 |  |  | 
17 | Hs_ASH2L_1 (CCGAGTAACTAACTTATTTAA; chemistry not given here) |  | 1.07 |  | 
18 | Hs_ASH2L_3 (TTGGAACACCCGTTTAACAAA; chemistry not given here) | 1.11 |  |  | 
19 | Hs_ATF1_6 (AACCTAGTACATTACTAAATA; chemistry not given here) [reference compound] |  |  | -0.75 | 
20 | Hs_ATF1_7 (CCAATAAATTCTAAATTACAA; chemistry not given here) [reference compound] |  | -1.38 |  | 
21 | Hs_ATF1_8 (CTGCATCAGGAGATATGCAAA; chemistry not given here) [reference compound] | -1.45 |  |  | 
22 | Hs_ATP6AP2_1 (ATGGGCTAATATGGATACTAA; chemistry not given here) |  | 0.84 |  | 
23 | Hs_ATP6AP2_2 (AAGAGTGTATATGGTAGGGAA; chemistry not given here) |  |  | 0.62 | 
24 | Hs_ATP6AP2_3 (AAGGACTATCCTTGAGGCAAA; chemistry not given here) | 1.26 |  |  | 
25 | Hs_ATP6AP2_5 (CAAGTGCTACATGATATTTCA; chemistry not given here) |  |  |  | 0.69
26 | Hs_ATP6V0C_2 (CTGGATGTTTATTTATAAAGA; chemistry not given here) | 3.5 |  |  | 

Row | Substance | Score_si1 | Score_si2 | Score_si4 | Score_si3
27 | Hs_BCHE_2 (CGGGTTGAAAGAGTTATTGTA; chemistry not given here) |  | 0.74 |  | 
28 | Hs_BCHE_3 (CAGGAGTGAGTGAGTTTGGAA; chemistry not given here) |  |  |  | 0.6
29 | Hs_BCHE_4 (CAGAACGTTGAACTTAGCTAA; chemistry not given here) | 0.93 |  |  | 
30 | Hs_BOP1_2 (CTGCCATGGCATGGTGTACAA; chemistry not given here) |  | 2.23 |  | 
31 | Hs_BRD8_1 (TGCAATGACATTGCAACGAAA; chemistry not given here) |  |  | 0.57 | 
32 | Hs_BRD8_4 (CCGGCTGTCTCCACTACTGAA; chemistry not given here) | 2.93 |  |  | 
33 | Hs_C14orf160_1 (AAAGATTTGAATTATAAATAA; chemistry not given here) [reference compound] |  |  |  | -1.03
34 | Hs_C14orf160_2 (ATGGAGTTACTGAAATGTATA; chemistry not given here) [reference compound] |  | -1.06 |  | 
35 | Hs_C15orf15_1 (CAGCATTTGTATAGTAACTAA; chemistry not given here) | 1.89 |  |  | 
36 | Hs_CAB39L_2 (GCCAATGTCTTTGGACTGTAA; chemistry not given here) | 2.37 |  |  | 
37 | Hs_CALM2_5 (ACAAAGGAATTGGGAACTGTA; chemistry not given here) |  |  | 0.05 | 
38 | Hs_CALM2_7 (CAAAGGAATTGGGAACTGTAA; chemistry not given here) | 3.2 |  |  | 
39 | Hs_CAMKK2_3 (TAGCAGCATGTCCTACGGAAA; chemistry not given here) |  |  | 1.01 | 
40 | Hs_CAMKK2_4 (sense ACAGAAAGGGCTTGAAATTTA; chemistry not given here) |  |  |  | 1.25
41 | Hs_CAMKK2_6 (sense CCGCAAGATCTTCTCTGGGAA; chemistry not given here) | 1.65 |  |  | 
42 | Hs_CAMKK2_7 (sense CTAGCTGATTGTTGTGGTCAA; chemistry not given here) |  | 1.31 |  | 
43 | Hs_CCDC6_1 (sense ATGGATAATTATCGTATATTA; chemistry not given here) [reference compound] | -2.65 |  |  | 
44 | Hs_CCDC6_2 (sense CAGGAATTTCAGGTCAACAAA; chemistry not given here) [reference compound] |  | -0.83 |  | 
45 | Hs_CCNF_2 (sense AACCCAAGCGTTGGAACTGTA; chemistry not given here) | 2.05 |  |  | 
46 | Hs_CCNF_3 (sense CACAGATGGCGTCAATGTGAA; chemistry not given here) |  | 1.09 |  | 
47 | Hs_CCNF_7 (sense CACGGACAACACTTACAAGTA; chemistry not given here) |  |  |  | 0.92
48 | Hs_CDC25A_1 (sense AAGGCGCTATTTGGCGCTTCA; chemistry not given here) |  | 1.56 |  | 
49 | Hs_CDK4_1 (sense CCGAACTGACCGGGAGATCAA; chemistry not given here) |  | 1.51 |  | 
50 | Hs_CDK4_2 (sense CAAGGTAACCCTGGTGTTTGA; chemistry not given here) | 1.6 |  |  | 
51 | Hs_CDK4_3 (sense ACCCTGGTGTTTGAGCATGTA; chemistry not given here) |  |  |  | 1.02
52 | Hs_CGI-12_1 (sense AAGATGTTAACTGCAAATAAA; chemistry not given here) [reference compound] | -2.28 |  |  | 

Row | Substance | Score_si1 | Score_si2 | Score_si4 | Score_si3
53 | Hs_CHD8_1 (sense CAGGAGGTTATTGGAGACCAA; chemistry not given here) |  | 1.61 |  | 
54 | Hs_CHD8_2 (sense AAGGATAAGAGGATACATCAA; chemistry not given here) |  |  |  | 1.53
55 | Hs_CIZ1_1 (sense CAGGTGAGGTCCAGAGATATA; chemistry not given here) [reference compound] | -1.69 |  |  | 
56 | Hs_CIZ1_2 (sense CAGCATGGAAGAGATTCAGAA; chemistry not given here) [reference compound] |  | -1.05 |  | 
57 | Hs_CLCN6_2 (sense CCGGTGAATGTTATTGGAATT; chemistry not given here) |  |  |  | -0.01
58 | Hs_CLCN6_4 (sense AAGATGTGAATTCAAGTATCA; chemistry not given here) | 2.72 |  |  | 
59 | Hs_CLK1_2 (sense AACGTGATGAACGCACCTTAA; chemistry not given here) |  |  |  | 1.36
60 | Hs_CLK1_4 (sense CCGTATTTCCAACACACGATA; chemistry not given here) |  |  | 0.91 | 
61 | Hs_CLPP_1 (sense CACGATGCAGTACATCCTCAA; chemistry not given here) |  |  | 0.97 | 
62 | Hs_CLPP_3 (sense GCCCATCCACATGTACATCAA; chemistry not given here) |  |  |  | 1.41
63 | Hs_CLTC_11 (sense ACAGTTCTACTTAGAATTCAA; chemistry not given here) | 2.42 |  |  | 
64 | Hs_CLTC_12 (sense CCGGAGAGATTTCTTCGTGAA; chemistry not given here) |  | 2.21 |  | 
65 | Hs_CNOT1_1 (sense CAGCTGGAATGGCTATGATTA; chemistry not given here) |  | 2.61 |  | 
66 | Hs_CNOT1_2 (sense CCAAGTTTGAATTTCAAGGAA; chemistry not given here) | 2.81 |  |  | 
67 | Hs_CNOT3_1 (sense CTCGGACACTGTGGAATTCTA; chemistry not given here) | 2.54 |  |  | 
68 | Hs_CNOT3_2 (sense ACGGCTGAGGGACCAAATCAA; chemistry not given here) |  |  |  | 1.32
69 | Hs_COPG_2 (sense CAGGAAAGGGACATTGTAAAT; chemistry not given here) |  | 2.25 |  | 
70 | Hs_COPS2_1 (sense CACGATATACTGCACTAGATA; chemistry not given here) |  | 1.3 |  | 
71 | Hs_COPS2_3 (sense ATGAATAGATATAAGCAGCTA; chemistry not given here) | 2.07 |  |  | 
72 | Hs_COPS2_4 (sense ATCCATTAATTCTATTCTTGA; chemistry not given here) |  |  | 1.19 | 
73 | Hs_CRSP7_1 (sense TACGGTTAACTTGGACGGGCA; chemistry not given here) [reference compound] |  | -1.45 |  | 
74 | Hs_CRSP7_2 (sense GAGAAATACCCTATTACCAAA; chemistry not given here) [reference compound] | -1.9 |  |  | 
75 | Hs_CRSP8_1 (sense AACGAGAATGTCTACACAGAA; chemistry not given here) [reference compound] | -2.6 |  |  | 
76 | Hs_CRSP8_2 (sense TCGAACAATAGTAAAGGGATA; chemistry not given here) [reference compound] |  | -1.08 |  | 
77 | Hs_CSNK1A1_3 (sense AAGAACTTAATTTCAGTATAA; chemistry not given here) |  |  |  | 1.65
